According to US5140102A, “Pentadecapeptide, guanylin, which stimulates intestinal guanylate cyclase” (Monsanto Company, priority 1991, dated 1992):
Each block holds one molecule with its values, some of them ahead of it. Positions of bridges follow the written chain, without caps; N, C: chain ends. Residues, ends and D or L forms follow the SMILES beside them.

What was measured:
[1] = molecular target: T1, intestinal guanylate cyclase (Homo sapiens, UniProt P25092); assay: Cyclic GMP determination in T84 cells (bioassay); assay type: cell-based
T1 construct: Monolayers of T84 cells in 24-well plates were washed twice; host or cells: T84 human colon carcinoma cells

proximal colon = details: read-out: EC50 for increase in Isc (X±S.E.); mucosal (luminal) addition, rat proximal colon, n=4 animals

T1 sequence (P25092 24-1073): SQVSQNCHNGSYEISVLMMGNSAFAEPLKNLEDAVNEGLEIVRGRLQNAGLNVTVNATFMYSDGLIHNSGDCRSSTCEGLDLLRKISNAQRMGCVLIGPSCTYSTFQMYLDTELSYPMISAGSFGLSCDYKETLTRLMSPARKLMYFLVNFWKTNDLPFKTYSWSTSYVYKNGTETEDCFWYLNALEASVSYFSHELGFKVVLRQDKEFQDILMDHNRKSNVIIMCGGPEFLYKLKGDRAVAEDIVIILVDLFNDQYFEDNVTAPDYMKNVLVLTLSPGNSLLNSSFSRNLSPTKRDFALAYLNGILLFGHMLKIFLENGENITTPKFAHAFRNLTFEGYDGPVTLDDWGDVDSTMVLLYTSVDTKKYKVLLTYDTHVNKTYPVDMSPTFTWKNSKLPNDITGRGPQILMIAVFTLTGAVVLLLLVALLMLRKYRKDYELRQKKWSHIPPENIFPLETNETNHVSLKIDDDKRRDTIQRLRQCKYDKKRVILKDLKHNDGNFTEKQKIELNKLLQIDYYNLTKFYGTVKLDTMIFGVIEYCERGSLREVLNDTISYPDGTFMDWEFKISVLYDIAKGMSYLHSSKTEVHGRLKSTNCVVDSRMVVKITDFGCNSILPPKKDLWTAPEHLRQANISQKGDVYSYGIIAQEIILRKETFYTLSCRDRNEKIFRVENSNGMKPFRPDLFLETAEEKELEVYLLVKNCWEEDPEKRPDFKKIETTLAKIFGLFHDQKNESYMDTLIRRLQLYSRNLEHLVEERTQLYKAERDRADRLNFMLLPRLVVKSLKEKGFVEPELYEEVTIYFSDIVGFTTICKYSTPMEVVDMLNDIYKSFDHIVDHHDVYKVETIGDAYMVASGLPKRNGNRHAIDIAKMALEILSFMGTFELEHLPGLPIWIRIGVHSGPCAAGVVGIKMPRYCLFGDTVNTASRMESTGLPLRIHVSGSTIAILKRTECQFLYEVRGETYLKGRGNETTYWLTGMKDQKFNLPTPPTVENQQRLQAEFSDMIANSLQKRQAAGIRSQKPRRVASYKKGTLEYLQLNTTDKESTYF

- effect on responsiveness of the cells ([1]; T84 cells treated with 10 μM): failed to affect their responsiveness
SMILES: O[C@H](CS)[C@H](O)CS (racemic) [DTT, dithiothreitol]

SMILES: CC[C@H](C)[C@@H]1NC(=O)[C@H](CCCNC(=N)N)NC(=O)[C@H](CC(=O)O)NC(=O)[C@H](CCSC)NC(=O)[C@H](CCCNC(=N)N)NC(=O)CNC(=O)CNC(=O)[C@H](Cc2ccccc2)NC(=O)[C@@H](NC(=O)[C@H](CO)NC(=O)[C@H](CO)NC(=O)[C@H](CCCNC(=N)N)NC(=O)[C@H](CCCNC(=N)N)NC(=O)[C@H](CC(C)C)NC(=O)[C@@H](N)CO)CSSC[C@@H](C(=O)N[C@@H](CC(N)=O)C(=O)N[C@@H](CO)C(=O)N[C@@H](Cc2ccccc2)C(=O)N[C@@H](CCCNC(=N)N)C(=O)N[C@@H](Cc2ccc(O)cc2)C(=O)O)NC(=O)CNC(=O)[C@H](CC(C)C)NC(=O)CNC(=O)[C@H](CO)NC(=O)[C@H](CCC(N)=O)NC(=O)[C@H](C)NC(=O)CNC1=O [atrial natriuretic peptide]
- effect on cyclic GMP levels [1]: not detected

SMILES: CC[C@H](C)[C@@H]1NC(=O)[C@H](CCC(=O)O)NC(=O)[C@@H](NC(=O)[C@@H](NC(=O)[C@H](CC(N)=O)NC(=O)[C@@H]2CCCN2)[C@@H](C)O)CSSC[C@@H]2NC(=O)[C@H](C)NC(=O)[C@H](C)NC(=O)[C@H](Cc3ccc(O)cc3)NC(=O)[C@H](C)NC(=O)[C@H](CSSC[C@@H](C(=O)O)NC(=O)CNC(=O)[C@H]([C@@H](C)O)NC2=O)NC1=O [guanylin] (H-PNTCEICAYAACTGC-OH; disulfide 4-12, 7-15)
- EC50 (proximal colon): 0.162 ± 0.026 µM
